According to ChEMBL document CHEMBL5465560, “Selectivity Literature for EUbOPEN Chemogenomic Library” (2024):
Values belong to the compound of their own block, whether it stands above or below them.

Columns and labels:
[1] = target: PAS domain-containing serine/threonine-protein kinase (Homo sapiens) (UniProt Q96RG2); experiment: Selectivity interaction (KinaseProfiler screening (Millipore)) EUB0000601a PASK; conditions: at 3 µM
[2] = target: Proto-oncogene tyrosine-protein kinase Src (Homo sapiens, UniProt P12931); conditions: at 10 µM
Sequence of Proto-oncogene tyrosine-protein kinase Src (P12931 2-536 limits assumed): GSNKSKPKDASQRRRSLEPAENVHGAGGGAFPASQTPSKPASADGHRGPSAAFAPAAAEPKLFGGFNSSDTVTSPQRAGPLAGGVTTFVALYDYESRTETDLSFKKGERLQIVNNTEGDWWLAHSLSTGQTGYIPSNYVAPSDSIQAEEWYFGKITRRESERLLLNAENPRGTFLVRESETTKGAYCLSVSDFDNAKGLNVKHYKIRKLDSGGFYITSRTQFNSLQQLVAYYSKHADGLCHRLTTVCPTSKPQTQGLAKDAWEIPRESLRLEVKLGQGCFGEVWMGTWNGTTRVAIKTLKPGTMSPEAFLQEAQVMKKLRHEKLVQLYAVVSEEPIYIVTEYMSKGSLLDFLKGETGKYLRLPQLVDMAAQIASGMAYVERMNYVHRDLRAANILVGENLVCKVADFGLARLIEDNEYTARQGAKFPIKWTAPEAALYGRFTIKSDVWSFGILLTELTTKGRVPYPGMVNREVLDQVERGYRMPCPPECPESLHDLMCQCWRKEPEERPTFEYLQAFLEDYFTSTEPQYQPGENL

[3] = test system: Tyrosine-protein kinase ABL1 (Homo sapiens), P00519 [Q252H]; experiment: Selectivity interaction (KinomeScan (DiscoverX)) EUB0000655a ABL1; conditions: at 10 µM
[4] = target: Tyrosine-protein kinase receptor UFO (Homo sapiens) (UniProt P30530); experiment: Selectivity interaction (KinomeScan (DiscoverX)) EUB0000655a AXL; conditions: at 10 µM
[5] = target: T1, Myosin light chain kinase family member 4 (Homo sapiens) (UniProt Q86YV6); experiment: Selectivity interaction (KinomeScan (DiscoverX)) EUB0001079a MYLK4; conditions: at 1 µM
T1 sequence (whole entry): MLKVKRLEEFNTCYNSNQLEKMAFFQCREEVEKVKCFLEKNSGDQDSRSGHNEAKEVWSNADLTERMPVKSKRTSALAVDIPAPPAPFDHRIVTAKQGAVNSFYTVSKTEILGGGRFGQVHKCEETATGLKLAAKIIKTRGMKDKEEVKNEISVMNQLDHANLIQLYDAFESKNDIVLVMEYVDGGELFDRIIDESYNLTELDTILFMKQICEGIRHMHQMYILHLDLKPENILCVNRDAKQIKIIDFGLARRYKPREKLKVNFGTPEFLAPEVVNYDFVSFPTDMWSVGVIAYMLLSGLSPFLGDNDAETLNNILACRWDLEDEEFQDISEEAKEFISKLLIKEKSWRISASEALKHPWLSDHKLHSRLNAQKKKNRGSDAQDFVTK

[6] = target: G protein-coupled receptor kinase 4 (Homo sapiens) (UniProt P32298); experiment: Selectivity interaction (SelectScreen profiling (Invitrogen)) EUB0000607a GRK4; conditions: at 2 µM
[7] = target: T2, Mitogen-activated protein kinase 15 (Homo sapiens) (UniProt Q8TD08); experiment: Selectivity interaction (KinomeScan (DiscoverX)) EUB0000595a MAPK15; conditions: at 10 µM
T2 sequence (whole entry): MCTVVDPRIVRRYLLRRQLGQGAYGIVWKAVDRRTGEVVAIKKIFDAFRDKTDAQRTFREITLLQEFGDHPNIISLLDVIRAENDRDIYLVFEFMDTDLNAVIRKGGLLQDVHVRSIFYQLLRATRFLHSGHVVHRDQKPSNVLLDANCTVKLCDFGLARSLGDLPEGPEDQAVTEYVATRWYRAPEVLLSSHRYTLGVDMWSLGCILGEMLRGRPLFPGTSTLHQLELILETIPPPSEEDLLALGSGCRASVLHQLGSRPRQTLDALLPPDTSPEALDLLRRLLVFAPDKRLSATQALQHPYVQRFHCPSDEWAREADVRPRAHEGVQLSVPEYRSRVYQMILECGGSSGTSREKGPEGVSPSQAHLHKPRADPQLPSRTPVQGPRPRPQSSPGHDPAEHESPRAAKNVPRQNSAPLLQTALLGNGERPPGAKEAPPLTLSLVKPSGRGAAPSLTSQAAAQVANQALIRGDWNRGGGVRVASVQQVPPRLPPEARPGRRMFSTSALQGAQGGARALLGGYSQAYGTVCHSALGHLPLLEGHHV

[8] = target: Ephrin type-A receptor 7 (Homo sapiens) (UniProt Q15375); experiment: Selectivity interaction (Kinase panel (Invitrogen)) EUB0000639a EPHA7; conditions: at 200 nM
Sequence of Ephrin type-A receptor 7 (Homo sapiens) (Q15375 28-998 limits assumed): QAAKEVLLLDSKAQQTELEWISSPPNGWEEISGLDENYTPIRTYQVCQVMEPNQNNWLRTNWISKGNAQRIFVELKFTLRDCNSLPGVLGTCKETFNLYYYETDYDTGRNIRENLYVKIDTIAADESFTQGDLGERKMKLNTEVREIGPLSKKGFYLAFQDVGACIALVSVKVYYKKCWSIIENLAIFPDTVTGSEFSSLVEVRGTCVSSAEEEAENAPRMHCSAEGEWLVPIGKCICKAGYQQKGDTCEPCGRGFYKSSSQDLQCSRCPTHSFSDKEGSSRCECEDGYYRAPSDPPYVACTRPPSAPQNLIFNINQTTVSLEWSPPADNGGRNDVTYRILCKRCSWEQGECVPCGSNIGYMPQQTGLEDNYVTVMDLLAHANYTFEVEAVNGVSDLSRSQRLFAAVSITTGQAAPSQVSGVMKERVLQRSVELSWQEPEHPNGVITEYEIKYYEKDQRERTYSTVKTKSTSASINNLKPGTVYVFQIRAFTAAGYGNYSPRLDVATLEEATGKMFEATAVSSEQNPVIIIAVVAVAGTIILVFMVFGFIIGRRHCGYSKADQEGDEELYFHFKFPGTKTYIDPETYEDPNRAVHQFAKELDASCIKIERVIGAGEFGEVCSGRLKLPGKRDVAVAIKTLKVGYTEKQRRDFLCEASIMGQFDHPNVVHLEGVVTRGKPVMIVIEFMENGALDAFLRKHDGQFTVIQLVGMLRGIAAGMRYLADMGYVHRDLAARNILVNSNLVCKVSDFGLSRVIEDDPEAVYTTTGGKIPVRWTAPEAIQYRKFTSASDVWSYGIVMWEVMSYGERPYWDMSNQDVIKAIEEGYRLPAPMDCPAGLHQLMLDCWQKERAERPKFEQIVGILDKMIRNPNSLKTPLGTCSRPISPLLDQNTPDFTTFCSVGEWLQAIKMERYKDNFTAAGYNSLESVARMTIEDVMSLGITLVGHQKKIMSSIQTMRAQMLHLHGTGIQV

[9] = target: Protein kinase C beta type (Homo sapiens, UniProt P05771)
Sequence of Protein kinase C beta type (P05771 whole entry): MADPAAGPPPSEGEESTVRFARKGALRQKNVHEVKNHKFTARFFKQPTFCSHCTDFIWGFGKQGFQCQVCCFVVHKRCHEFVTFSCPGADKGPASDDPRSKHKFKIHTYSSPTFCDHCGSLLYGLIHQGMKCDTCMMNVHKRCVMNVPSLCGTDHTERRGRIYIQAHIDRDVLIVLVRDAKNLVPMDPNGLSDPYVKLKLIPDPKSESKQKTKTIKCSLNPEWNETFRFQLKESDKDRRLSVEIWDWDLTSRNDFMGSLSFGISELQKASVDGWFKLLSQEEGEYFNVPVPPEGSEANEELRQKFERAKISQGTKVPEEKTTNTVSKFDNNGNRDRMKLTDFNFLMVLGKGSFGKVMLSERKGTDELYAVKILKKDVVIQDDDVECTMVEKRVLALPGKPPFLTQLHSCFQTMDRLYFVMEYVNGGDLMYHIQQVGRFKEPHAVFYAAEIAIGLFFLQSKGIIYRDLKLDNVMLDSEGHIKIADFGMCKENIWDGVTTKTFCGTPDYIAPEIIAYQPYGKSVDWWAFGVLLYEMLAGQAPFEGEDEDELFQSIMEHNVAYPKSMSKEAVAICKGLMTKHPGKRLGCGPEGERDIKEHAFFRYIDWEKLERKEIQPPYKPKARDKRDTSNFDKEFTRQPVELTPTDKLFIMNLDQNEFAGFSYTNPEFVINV

[10] = target: Homeodomain-interacting protein kinase 3 (Homo sapiens, UniProt Q9H422); experiment: Selectivity interaction (Enzymatic assay (Eurofins)) EUB0001049a HIPK3
Sequence of Homeodomain-interacting protein kinase 3 (Q9H422 whole entry): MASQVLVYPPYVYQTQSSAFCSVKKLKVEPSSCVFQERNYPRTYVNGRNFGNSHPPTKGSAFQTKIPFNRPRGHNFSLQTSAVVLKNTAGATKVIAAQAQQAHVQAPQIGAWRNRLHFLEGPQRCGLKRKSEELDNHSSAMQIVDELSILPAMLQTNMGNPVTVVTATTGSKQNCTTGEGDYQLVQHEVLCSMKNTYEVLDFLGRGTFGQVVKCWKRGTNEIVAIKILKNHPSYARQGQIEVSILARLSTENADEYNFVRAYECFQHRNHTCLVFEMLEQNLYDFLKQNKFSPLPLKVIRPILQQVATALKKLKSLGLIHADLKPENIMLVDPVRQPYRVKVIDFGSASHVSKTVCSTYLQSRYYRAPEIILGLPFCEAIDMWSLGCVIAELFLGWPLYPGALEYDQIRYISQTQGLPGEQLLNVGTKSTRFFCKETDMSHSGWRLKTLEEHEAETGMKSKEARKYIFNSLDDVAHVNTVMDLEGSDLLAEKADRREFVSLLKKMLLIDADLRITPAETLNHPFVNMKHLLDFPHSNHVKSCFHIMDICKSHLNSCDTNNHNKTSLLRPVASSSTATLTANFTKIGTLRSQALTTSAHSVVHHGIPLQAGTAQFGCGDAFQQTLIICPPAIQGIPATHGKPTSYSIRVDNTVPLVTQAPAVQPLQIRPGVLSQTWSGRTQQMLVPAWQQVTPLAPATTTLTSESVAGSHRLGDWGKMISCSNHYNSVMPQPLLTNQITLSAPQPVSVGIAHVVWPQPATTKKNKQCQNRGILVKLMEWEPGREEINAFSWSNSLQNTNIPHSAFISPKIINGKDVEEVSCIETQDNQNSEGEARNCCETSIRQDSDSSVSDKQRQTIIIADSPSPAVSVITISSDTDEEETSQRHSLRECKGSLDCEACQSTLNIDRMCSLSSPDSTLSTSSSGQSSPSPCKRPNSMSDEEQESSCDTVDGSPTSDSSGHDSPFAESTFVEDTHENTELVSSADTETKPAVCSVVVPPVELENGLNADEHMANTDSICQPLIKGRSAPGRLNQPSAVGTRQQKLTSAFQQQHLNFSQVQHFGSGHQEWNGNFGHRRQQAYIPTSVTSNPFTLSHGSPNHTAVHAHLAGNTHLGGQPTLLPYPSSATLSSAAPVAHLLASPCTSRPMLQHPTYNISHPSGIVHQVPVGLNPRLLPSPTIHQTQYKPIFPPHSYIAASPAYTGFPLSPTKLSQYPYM

[11] = target: T3, Protein kinase C epsilon type (Homo sapiens) (UniProt Q02156); experiment: Selectivity interaction (KinomeScan (DiscoverX)) EUB0000092b PRKCE; conditions: at 10 µM
T3 sequence (whole entry): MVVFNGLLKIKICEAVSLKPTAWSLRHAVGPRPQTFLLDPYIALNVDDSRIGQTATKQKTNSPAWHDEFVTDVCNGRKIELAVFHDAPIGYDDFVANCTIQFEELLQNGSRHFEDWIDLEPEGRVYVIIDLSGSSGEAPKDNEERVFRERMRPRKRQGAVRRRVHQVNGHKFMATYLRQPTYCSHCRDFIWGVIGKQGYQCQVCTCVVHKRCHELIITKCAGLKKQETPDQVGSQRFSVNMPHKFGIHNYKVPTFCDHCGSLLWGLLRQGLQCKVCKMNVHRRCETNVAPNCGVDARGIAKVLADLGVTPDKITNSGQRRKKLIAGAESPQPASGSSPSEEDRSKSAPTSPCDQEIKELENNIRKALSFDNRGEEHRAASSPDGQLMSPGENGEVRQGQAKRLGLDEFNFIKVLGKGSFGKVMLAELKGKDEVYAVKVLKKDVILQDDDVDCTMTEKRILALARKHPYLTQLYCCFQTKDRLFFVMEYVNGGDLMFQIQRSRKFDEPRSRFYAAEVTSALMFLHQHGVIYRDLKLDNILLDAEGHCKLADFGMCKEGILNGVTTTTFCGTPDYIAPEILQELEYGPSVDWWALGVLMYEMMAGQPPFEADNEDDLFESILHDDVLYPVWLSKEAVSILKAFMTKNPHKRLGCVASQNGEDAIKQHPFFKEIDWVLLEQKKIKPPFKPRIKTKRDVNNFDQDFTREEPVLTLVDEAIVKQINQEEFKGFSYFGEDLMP

[12] = target: Ephrin type-A receptor 7 (Homo sapiens) (UniProt Q15375); experiment: Selectivity interaction (LanthaScreen Eu Kinase Binding Assay) EUB0001632a EPHA7; conditions: at 10 µM

Sequence of PAS domain-containing serine/threonine-protein kinase (Homo sapiens) (Q96RG2 whole entry, the tested form may be a part): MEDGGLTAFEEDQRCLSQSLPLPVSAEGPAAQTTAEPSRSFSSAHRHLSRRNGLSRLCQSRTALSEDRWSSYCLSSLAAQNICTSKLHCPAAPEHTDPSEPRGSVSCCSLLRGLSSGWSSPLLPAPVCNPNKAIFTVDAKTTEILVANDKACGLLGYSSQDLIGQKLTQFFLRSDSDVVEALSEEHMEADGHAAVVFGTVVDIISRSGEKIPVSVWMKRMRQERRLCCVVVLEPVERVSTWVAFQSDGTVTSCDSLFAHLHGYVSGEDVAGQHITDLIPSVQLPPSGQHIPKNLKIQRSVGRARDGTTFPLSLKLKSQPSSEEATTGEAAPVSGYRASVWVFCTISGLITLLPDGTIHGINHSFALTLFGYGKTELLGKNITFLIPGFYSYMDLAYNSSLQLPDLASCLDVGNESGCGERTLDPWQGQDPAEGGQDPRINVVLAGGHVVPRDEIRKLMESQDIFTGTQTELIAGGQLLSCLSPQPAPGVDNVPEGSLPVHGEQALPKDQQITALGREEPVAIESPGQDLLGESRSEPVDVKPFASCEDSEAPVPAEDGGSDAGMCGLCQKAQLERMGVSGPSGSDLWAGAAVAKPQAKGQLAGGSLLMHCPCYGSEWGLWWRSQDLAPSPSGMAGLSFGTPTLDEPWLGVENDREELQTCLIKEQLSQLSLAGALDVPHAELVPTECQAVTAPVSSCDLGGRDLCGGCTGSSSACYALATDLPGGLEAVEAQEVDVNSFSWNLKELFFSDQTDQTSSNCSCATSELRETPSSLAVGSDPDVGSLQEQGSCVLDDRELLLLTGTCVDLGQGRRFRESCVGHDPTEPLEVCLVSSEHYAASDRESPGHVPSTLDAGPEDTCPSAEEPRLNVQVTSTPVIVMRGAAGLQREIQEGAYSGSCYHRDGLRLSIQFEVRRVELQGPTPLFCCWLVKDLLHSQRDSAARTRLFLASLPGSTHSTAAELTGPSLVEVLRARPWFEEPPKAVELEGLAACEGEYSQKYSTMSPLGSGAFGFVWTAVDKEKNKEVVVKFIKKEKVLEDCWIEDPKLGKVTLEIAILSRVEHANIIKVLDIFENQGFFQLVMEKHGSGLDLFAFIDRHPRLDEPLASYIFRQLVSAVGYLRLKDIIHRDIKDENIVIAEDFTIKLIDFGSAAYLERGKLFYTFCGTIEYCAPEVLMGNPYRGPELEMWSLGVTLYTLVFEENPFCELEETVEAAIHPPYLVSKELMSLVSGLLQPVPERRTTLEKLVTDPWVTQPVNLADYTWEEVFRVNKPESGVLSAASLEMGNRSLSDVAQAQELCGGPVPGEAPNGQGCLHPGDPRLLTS

% of inhibition [1]: 65%
Compound: CCc1cc(Nc2nccc(-c3c(-c4ccc(OC)c(C(=O)Nc5c(F)cccc5F)c4)nc4ccccn34)n2)c(OC)cc1N1CCC(N2CCN(S(C)(=O)=O)CC2)CC1

% of control [2]: 100%
Compound: CCN(CC)CCCCNc1ncc2cc(-c3cc(OC)cc(OC)c3)c(NC(=O)NC(C)(C)C)nc2n1

Compound: CN(C)CCOc1ccc(-c2nc(-c3ccncc3)c(-c3ccc4c(c3)CC/C4=N\O)[nH]2)cc1
% of control [3]: 3.8%
% of control [4]: 78%

Compound: Nc1cnc(N2CCc3cc(S(=O)(=O)Nc4c(F)cc(Cl)cc4F)cc(N4CCCC4=O)c32)nc1 [TP-020n]
% of control [5]: 100%

Compound: CNC(=O)Nc1ccc(-c2nc(N3CC4CCC(C3)O4)c3cnn(C4CCC5(CC4)OCCO5)c3n2)cc1
% of inhibition [6]: -4%

Compound: COCC(=O)NC/C=C/c1ccc2ncnc(Nc3ccc(Oc4ccc(C)nc4)c(C)c3)c2c1 [CP-724714]
% of control [7]: 100%

% of inhibition [8]: -7.96%
Compound: CC[C@@H]1[C@H](F)C(=O)N[C@@H]1COc1nccc2cc(C(N)=O)c(OC)cc12 [ZIMLOVISERTIB]

IC50 [9]: > 10 µM
Compound: CCc1cccc(CC)c1NC(=O)c1nn(C)c2c1CCc1cnc(Nc3ccc(C(=O)NC4CCN(C)CC4)cc3OC(F)(F)F)nc1-2

Compound: COc1cc(Nc2nc(C)cc(-c3cnn4nc(OC)ccc34)n2)cc(C(F)(F)F)c1
IC50 [10]: > 10 µM

Compound: CCC(=O)N1CCN(c2ccc(-n3c(=O)ccc4cnc5ccc(-c6cnc7ccccc7c6)cc5c43)cc2C(F)(F)F)CC1
% of control [11]: 86%

% of inhibition [12]: -69.8%
Compound: Cn1cc(-n2cnc3c(NCc4nc5cc(Cl)c(Cl)cc5[nH]4)nc(N4CCOCC4)nc32)cn1
